Data reported in US7622269B2, “Methods of screening tyramine- and octopamine-expressing cells for compounds and compositions having potential insect control activity” (Tyratech, Inc., priority 2004, dated 2009).
Values joined by “and” are separate entries in the source; they are usually repeats but may differ in a detail not shown here. Equal values may be shown once.

Key:
[1] = tested on: Drosophila melanogaster wild type strain; experiment: Topical toxicity bioassay, wild type fruit fly; format: in vivo; settings: for Wild/type LD50 values / LD50, D. melanogaster: topical application; for Wild/type LD50 values: mortality 24 hours after treatment; for % Mortality at LD50 of wild/type Drosophila melanogaster strain, Wild/type: topical, 24 hour; for LD50, D. melanogaster: 24 hours
Pa oa1 [2] = biological target: T1, Pa oa1 (Periplaneta americana, UniProt Q7YWB7); experiment: Saturation binding of 3H-yohimbine to membranes of COS-7 cells expressing Pa oa1
OAMB [3] = biological target: T2, OAMB (Drosophila melanogaster, UniProt Q7JQF1, L268I/L487I/L521I/T180I); experiment: Saturation binding of 3H-yohimbine to membranes of COS-7 cells expressing OAMB; design: Oligonucleotides designed to amplify the open reading frame of Drosophila melanogaster OAMB; expressed in transfected cells
Pa oa1 [4] = biological target: T1, Pa oa1; experiment: Intracellular calcium (Fura-2) in HEK-293 cells expressing Pa oa1; format: cell-based
Pa oa1 [5] = biological target: T1, Pa oa1; experiment: cAMP levels in HEK-293 cells expressing Pa oa1; format: cell-based
Procedure: (§1) Twenty-four hours before cell treatment, about 300,000 HEK-293 cells are plated in about 1 ml media with about 0.8 mg G418/ml into multi-well dishes (e.g., 12-well, 4.5 cm^2). For cell treatment, the media is aspirated and about 1 ml PBS with about 300 μM IBMX and the test reagent is added. […] Cells are incubated with about 70% ethanol for about 1 h at about −20° C. The cellular debris is centrifuged and then the supernatant is removed and lyophilized to dryness. The amount of cAMP in the extract is determined by using a cAMP binding protein from the ^3H-cAMP Biotrak assay system (Amersham Biosciences) as per the manufacturer's instructions. To test the effects of calcium chelation on cAMP levels, the cells are incubated with about […] BAPTA/AM (Calbiochem Biochemicals, La Jolla, Calif.) for about 10 min before the addition of the test reagents.
(§2) To determine cAMP levels in cells, about 24-hours before cell treatment, 300,000 HEK-293 cells are plated in 1 mL media with 0.8 mg G418/mL into multi-dishes (4.5 cm2). For cell treatment, the media is aspirated and 1 mL PBS with 300 μM IBMX and the test reagent is added. Cells are incubated at 37° C. for 20 min, and the PBS is then aspirated. Cells are incubated with 70% ethanol for 1 hour at −20° C. The cellular debris is centrifuged and then the supernatant is removed and lyophilized to dryness. The amount of cAMP in the extract is determined by using a cAMP binding protein from the ^3H-cAMP Biotrak assay system (Amersham Biosciences, Piscataway, N.J.) as per the manufacturer's instructions.

Pa oa1 [6] = biological target: T1, Pa oa1; experiment: Competitive binding against 3H-yohimbine, Pa oa1 membranes; settings: Ki, about 2 nM 3H-yohimbine
control HEK-293 cells [7] = experiment: cAMP levels in control HEK-293 cells transfected with pCDNA3 without insert; format: cell-based, human; settings: up to about 100 μM
Procedure: as §1
To determine which second messenger signaling pathways octopamine could affect through the Pa oa1 receptor, HEK-293 cells are stably transfected with pCDNA3-Pa oa1 or pCDNA3 without an insert as a control.

control HEK-293 cells [8] = experiment: Intracellular calcium in control HEK-293 cells transfected with empty pCDNA3; format: cell-based, human; settings: about 10 μM
OAMB [9] = biological target: T2, OAMB; experiment: biochemical; format: binding; design: Oligonucleotides designed to amplify the open reading frame of Drosophila melanogaster OAMB; expressed in transfected cells
OAMB [10] = biological target: T2, OAMB; experiment: Specific binding of 3H-yohimbine to OAMB membranes in presence of plant essential oil; design: Oligonucleotides designed to amplify the open reading frame of Drosophila melanogaster OAMB; expressed in transfected cells; settings: 50 μM test chemical, 4 nM 3H-yohimbine
Procedure: (§3) The binding activity of ^3H-yohimbine to membranes expressing Pa oa1 or OAMB is performed in the presence and absence of three structurally related plant essential oil monoterpenoids, which are selected based on their insecticidal activity, the absence or presence and location of the hydroxyl group and a spacing group within the molecule. Membrane protein (10 μg) expressing Pa oa1 is incubated with 4 nM ^3H-yohimbine in the presence and absence of 50 μM of the test chemical. The specific activity is calculated as the difference between counts in the presence and absence of test chemical. Specific binding is calculated by determining nonspecific binding with 50 μM tested plant essential oils and subtracting nonspecific binding from total binding.

OAMB [11] = biological target: T2, OAMB; experiment: Intracellular calcium (Fura-2) in HEK-293 cells expressing OAMB; settings: 25 μM
Procedure: Cells are collected by scraping and are suspended at about 750,000 cells/ml in HBSS with about 5 μM Fura-2 AM (Sigma-Aldrich).

American cockroach = experiment: Topical toxicity bioassay, American cockroach; format: in vivo, Periplaneta americana; settings: for LD50, P. Americana: topical application, 24 hours
Procedure: Acetonic solutions of plant essential oils are prepared and different concentrations of each, that give from 10%-100% mortality, are applied by topical application. Controls are treated with the same volume (0.5 μl/insect) of acetone. Replicates, with 5 insects per replicate, are used for each concentration. The mortality is calculated 24 hours after treatment. Data are subjected to probit analysis to determine LD50 value for each compound.

OAMB [12] = biological target: T2, OAMB; experiment: cAMP levels in HEK-293 cells expressing OAMB; format: cell-based; design: Oligonucleotides designed to amplify the open reading frame of Drosophila melanogaster OAMB; expressed in transfected cells; settings: 50 μM, 300 μM IBMX
Procedure: as §2

Pa oa1 [13] = biological target: T1, Pa oa1; experiment: Specific binding of 3H-yohimbine to Pa oa1 membranes in presence of plant essential oil; settings: for relative potency as inhibitor of 3H-yohimbine binding, Pa oa1 vs OAMB: 50 μM; for effect on specific binding of 3H-yohimbine: 50 μM test chemical, 4 nM 3H-yohimbine
Procedure: as §3

[14] = 3H-yohimbine 0.5 to 50 nM, 50 μM phentolamine for nonspecific binding

T1 sequence (Q7YWB7 entry or part of it): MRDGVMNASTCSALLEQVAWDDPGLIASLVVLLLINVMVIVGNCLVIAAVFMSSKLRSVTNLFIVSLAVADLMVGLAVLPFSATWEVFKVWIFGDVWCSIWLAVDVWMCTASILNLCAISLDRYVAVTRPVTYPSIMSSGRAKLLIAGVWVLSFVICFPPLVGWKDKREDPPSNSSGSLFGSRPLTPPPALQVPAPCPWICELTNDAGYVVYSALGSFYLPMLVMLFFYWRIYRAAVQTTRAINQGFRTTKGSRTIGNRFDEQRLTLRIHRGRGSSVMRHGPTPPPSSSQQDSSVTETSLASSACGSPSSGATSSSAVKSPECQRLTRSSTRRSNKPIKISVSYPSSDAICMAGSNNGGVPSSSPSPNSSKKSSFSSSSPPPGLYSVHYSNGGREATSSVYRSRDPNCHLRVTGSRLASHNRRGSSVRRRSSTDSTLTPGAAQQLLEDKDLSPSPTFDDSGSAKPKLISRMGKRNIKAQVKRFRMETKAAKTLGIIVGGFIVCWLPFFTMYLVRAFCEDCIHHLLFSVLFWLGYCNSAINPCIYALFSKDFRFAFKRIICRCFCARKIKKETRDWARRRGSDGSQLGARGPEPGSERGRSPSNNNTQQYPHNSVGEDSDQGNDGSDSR
T2 sequence (Q7JQF1 other isoform, or with tags, fused parts or gaps T180I/L268I/L487I/L524I): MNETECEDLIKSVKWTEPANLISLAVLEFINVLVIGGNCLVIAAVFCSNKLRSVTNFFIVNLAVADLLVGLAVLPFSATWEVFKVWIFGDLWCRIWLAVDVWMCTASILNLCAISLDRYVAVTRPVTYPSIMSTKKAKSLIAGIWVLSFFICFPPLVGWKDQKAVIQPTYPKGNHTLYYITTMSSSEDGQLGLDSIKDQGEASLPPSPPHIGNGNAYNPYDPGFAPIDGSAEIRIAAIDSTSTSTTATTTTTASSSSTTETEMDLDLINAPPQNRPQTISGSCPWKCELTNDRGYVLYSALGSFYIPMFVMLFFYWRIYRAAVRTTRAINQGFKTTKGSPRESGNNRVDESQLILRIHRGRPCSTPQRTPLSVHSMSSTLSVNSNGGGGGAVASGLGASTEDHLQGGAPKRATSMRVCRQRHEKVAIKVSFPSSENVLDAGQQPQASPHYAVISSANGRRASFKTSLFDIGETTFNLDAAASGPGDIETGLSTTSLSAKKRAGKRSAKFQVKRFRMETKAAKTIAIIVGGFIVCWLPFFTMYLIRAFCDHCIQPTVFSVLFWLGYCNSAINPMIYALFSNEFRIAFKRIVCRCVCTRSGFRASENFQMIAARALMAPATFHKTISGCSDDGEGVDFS

CCC(=O)OCCc1ccccc1 [2-phenylethyl propionate]
Wild/type LD50 values [1]: 14.50 μg/fly | % Mortality at LD50 of wild/type Drosophila melanogaster strain, Wild/type [1]: 53.3%

COC(=O)[C@@H]1[C@H]2C[C@H]3c4[nH]c5ccccc5c4CCN3C[C@@H]2CC[C@@H]1O [3H-yohimbine]
Kd (Pa oa1 [2]; [14]): ~0.0284 µM and 0.0284 µM | Bmax for specific binding (Pa oa1 [2]; COS-7 membranes): about 11.8 pmol/mg protein | affinity of Pa oa1 to the radioligand higher than OAMB (Pa oa1 [2]; Pa oa1 vs OAMB): about 1.5 fold | Bmax (Pa oa1 [2]; Table B): 11.80 pmole receptor/mg protein | Kd (OAMB [3]; [14]): ~0.043 µM and 0.043 µM | Bmax (OAMB [3]; COS-7 membranes): about 8.04 pmol/mg | Bmax (OAMB [3]; Table B): 8.04 pmole receptor/mg protein

CC(=O)OCOC(=O)CN(CC(=O)OCOC(C)=O)c1ccccc1OCCOc1ccccc1N(CC(=O)OCOC(C)=O)CC(=O)OCOC(C)=O [BAPTA/AM]
effect on increase in free intracellular calcium by about 1 μM octopamine (Pa oa1 [4]; about 20 μM BAPTA/AM): inhibit the increase in free intracellular calcium | cAMP levels in absence vs presence of BAPTA/AM (Pa oa1 [5]; about 20 μM BAPTA/AM, basal, about 100 nM or about 1 μM octopamine): not found to be statistically different

CN(C)CCCN1c2ccccc2Sc2ccc(Cl)cc21 [Chlorpromazine]
Ki (Pa oa1 [6]): 0.012 ± 0.003 µM

NCCc1ccc(O)c(O)c1 [Dopamine]
Ki (Pa oa1 [6]): 56.6 ± 8 µM

CCN(CC)CCNC(=O)c1cc(Cl)c(N)cc1OC [Metoclopramine]
Ki (Pa oa1 [6]): 4.76 ± 1.32 µM

Cc1ccc(N(CC2=NCCN2)c2cccc(O)c2)cc1 [Phentolamine]
Ki (Pa oa1 [6]): 0.023 ± 0.009 µM

NCCc1c[nH]c2ccc(O)cc12 [Serotonin]
Ki (Pa oa1 [6]): 77.4 ± 11.6 µM

NCCc1ccc(O)cc1 [Tyramine, tyramine]
effect on cAMP levels (control HEK-293 cells [7]): neither DL-octopamine nor tyramine at concentrations up to about 100 μM has significant effects on cAMP levels | effect on intracellular calcium levels (control HEK-293 cells [8]): Neither about 10 μM octopamine nor about 10 μM tyramine modulates intracellular calcium levels | Ki (OAMB [9]): ~33.8 µM | Ki (Pa oa1 [6]): ~31 µM and 31 µM | concentration that increases intracellular calcium (Pa oa1 [4]): ≥ 1 µM | effect on intracellular calcium (Pa oa1 [4]; about 100 nM): does not modulate intracellular calcium levels | increase in tyramine concentration compared to about 10 nM octopamine required for similar response (Pa oa1 [4]; calcium and cAMP assays): about 100 fold | EC50 (Pa oa1 [5]; 300 μM IBMX, read-out: EC50 for increase in cAMP): ~97.7 µM | fold induction at 100 µM (Pa oa1 [5]; HEK293, 20 min, about 100 μM amine, read-out: increase in cAMP): ~215 | cAMP concentration (Pa oa1 [5]; about 10 nM amine, basal about 0.48 pmol cAMP): about 0.50 pmol cAMP | cAMP (Pa oa1 [5]; about 1 μM amine): about 1.2 pmol

OCC=Cc1ccccc1 [cinnamic alcohol, 3-phenyl-2-propen-1-ol]
effect on specific binding of 3H-yohimbine (OAMB [10]): decrease the binding of ^3H-yohimbine | changes in [Ca2+]i level (OAMB [11]): increase [Ca^2+]i through Pa oa1 and OAMB | rank of potency based on increased [Ca2+]i level (OAMB [11]): the most potent agent tested in this example | speed of increase in [Ca2+]i (OAMB [11]): slower than the other two chemicals | changes in [Ca2+]i level (Pa oa1 [4]; 25 μM): increase [Ca^2+]i through Pa oa1 and OAMB | LD50, P. Americana (American cockroach): 98 μg/insect | LD50, D. melanogaster [1]: 1.65 μg/insect | Wild/type LD50 values [1]: 1.65 μg/fly | % Mortality at LD50 of wild/type Drosophila melanogaster strain, Wild/type [1]: 30.0% | effect on basal cAMP level (OAMB [12]): slight increase in cAMP level | relative potency as inhibitor of 3H-yohimbine binding, Pa oa1 vs OAMB (Pa oa1 [13]): more potent against OAMB than Pa oa1 | effect on specific binding of 3H-yohimbine (Pa oa1 [13]): decrease the binding of ^3H-yohimbine | effect on basal cAMP level (Pa oa1 [5]; 50 μM, 300 μM IBMX): slight increase in cAMP level

C=CCc1ccc(O)c(OC)c1 [eugenol, 2-methoxy-4-(2-propenyl)phenol]
effect on specific binding of 3H-yohimbine (OAMB [10]): decrease the binding of ^3H-yohimbine | changes in [Ca2+]i level (OAMB [11]): increase [Ca^2+]i through Pa oa1 and OAMB | changes in [Ca2+]i level (Pa oa1 [4]; 25 μM): increase [Ca^2+]i through Pa oa1 and OAMB | rank of potency based on increased [Ca2+]i level (Pa oa1 [4]; 25 μM): the most potent agent tested in this example | more toxic against American cockroach than cinnamic alcohol (American cockroach; in vivo): about 2 fold | more toxic against American cockroach than trans-anethole (American cockroach; in vivo): about 27 fold | LD50, P. Americana (American cockroach): 47 μg/insect | more toxic against wild type flies than trans-anethole ([1]; in vivo): 3 fold | LD50, D. melanogaster [1]: 1.90 μg/insect | Wild/type LD50 values [1]: 1.90 μg/fly | % Mortality at LD50 of wild/type Drosophila melanogaster strain, Wild/type [1]: 53.3% | effect on basal cAMP level (OAMB [12]): slightly decreased cAMP level | relative potency as inhibitor of 3H-yohimbine binding, Pa oa1 vs OAMB (Pa oa1 [13]): more potent inhibitors against Pa oa1 than OAMB | effect on specific binding of 3H-yohimbine (Pa oa1 [13]): decrease the binding of ^3H-yohimbine | inhibition at 50 µM (Pa oa1 [5]; HEK293, 20 min, 50 μM, 300 μM IBMX, basal cAMP, read-out: decrease in cAMP level): 24%

CC(C)=CCCC(C)=CCO [geraniol, 3,7-dimethyl-2,6-octadien-1-ol]
Wild/type LD50 values [1]: 10.50 μg/fly | % Mortality at LD50 of wild/type Drosophila melanogaster strain, Wild/type [1]: 60.0%

COC(=O)c1ccccc1O [methyl salicylate, 2-hydroxybenzoic acid methyl ester]
Wild/type LD50 values [1]: 7.50 μg/fly | % Mortality at LD50 of wild/type Drosophila melanogaster strain, Wild/type [1]: 40.0%

Cc1ccc(C(C)C)cc1 [p-cymene, methyl(1-methylethyl)benzene]
Wild/type LD50 values [1]: 25.00 μg/fly | % Mortality at LD50 of wild/type Drosophila melanogaster strain, Wild/type [1]: 40.0%

CC=Cc1ccc(OC)cc1 [trans-anethole, 1-methoxy-4-(1-propenyl)benzene]
effect on specific binding of 3H-yohimbine (OAMB [10]): does not have a significant effect on binding to OAMB | changes in [Ca2+]i level (OAMB [11]): increases | speed of increase in [Ca2+]i (Pa oa1 [4]; 25 μM): slower than eugenol and cinnamic alcohol | increase in cAMP level (OAMB [12]; basal cAMP): 22% | effect on specific binding of 3H-yohimbine (Pa oa1 [13]): decreases the ^3H-yohimbine binding activity to only Pa oa1
